In article PMC12656329, “Specific Hepatorenal Toxicity and Cross-Species Susceptibility of Eight Representative Pesticides” (Toxics, 2025):
Entries after “also recorded” stand apart in the source; their conditions may differ. Read-outs that look alike come from different tables or passages of the source.

Legend:
CCC-HEL-1 hepatocytes [1] = details: CCC-HEL-1 cells, 24 h exposure at median lethal concentration, vs control
[2] = ref PPDB: Pesticide Properties DataBase, cited from earlier work
NRK renal cells = assay: CCK-8 cytotoxicity assay, NRK; format: cell-based; details: Rattus norvegicus; CCK-8, 24 h exposure
Protocol: (§1) Human embryonic kidney 293T (HEK293T) cells and rat renal NRK cells were maintained in high-glucose DMEM supplemented with 10% fetal bovine serum (FBS) and 1% penicillin–streptomycin at 37 °C under 5% CO2 until reaching 70–80%. Human liver CCC-HEL-1 cells were cultured under identical conditions but with 20% FBS, while rat normal hepatocytes were grown in high-glucose MEM containing 20% FBS and 1% penicillin–streptomycin. Stock solutions (500 g/L) of eight pesticide standards were prepared in dimethyl sulfoxide (DMSO) and stored at −20 °C. Working concentrations were freshly diluted in serum-containing culture medium prior to each experiment.
(§2) The cytotoxicity of eight pesticides on four mammalian cell lines was assessed using the Cell Counting Kit-8 (CCK-8) assay. Initially, stock solutions of each pesticide were prepared by dissolving the compound in dimethyl sulfoxide (DMSO) to a final concentration of 500 g/L. For the assay, cells were seeded into 96-well plates at a density of 2 × 10^4 cells per well in 100 µL of medium and incubated for 24 h at 37 °C under a 5% CO2 atmosphere to allow for attachment. Subsequently, the culture medium was replaced with fresh medium containing the pesticides at a series of final concentrations (0, 10, 100, 200, 400, 800, 1000, and 2500 mg/L). Pesticide working concentrations were prepared through serial dilution of the 500 g/L DMSO stock solution, resulting in variable final DMSO concentrations across treatment groups (ranging from 0.002% to 0.5% v/v). A media-only blank (no cells) was included for background absorbance correction, and a solvent control (0.1% DMSO, no pesticide) was used to account for any vehicle effects. All conditions were performed in five replicates. […] At DMSO concentrations ranging from 0.1% to 0.2%, the viability of all four cell lines remained stable above 80%. At a 1% DMSO concentration, the viability of all four cell types was around 50% or higher (Supplementary Figure S5). Following 24 h of exposure, 10 µL of CCK-8 reagent was added to each well. Absorbance Measurement: After an additional 1 h of incubation in the dark, the optical density (OD) at 450 nm was recorded using a microplate reader. Cell viability was calculated by comparing the OD values of treated groups with those of the blank control. Although some test concentrations exceeded the water solubility of the pesticides, the combination of DMSO and serum in the culture medium maintained a uniform exposure system. No precipitation was observed during the experiment, ensuring that the measured effects are attributed to the bioavailable fraction of the compound. […]
(§3) 1. Pesticide Exposure: After removing the medium, fresh medium containing gradient concentrations (0–2500 mg/L) of each pesticide was added (five replicates per concentration).
(§4) Following 24 h of exposure, 10 µL of CCK-8 reagent was added to each well.
(§5) 2. Absorbance Measurement: After 1 h of dark incubation, the OD at 450 nm was measured using a microplate reader.
(§6) 3. Cell Viability Calculation: Viability was determined by comparing the OD values of treated groups to the blank control. […]

[3] = system: four mammalian cell lines (CCC-HEL-1, 293T, IAR, NRK); assay: CCK-8 cytotoxicity, statements across the four cell lines; format: cell-based, human and rat; details: CCK-8 / heatmap of OD values
Protocol: The cytotoxicity of eight pesticides on four mammalian cell lines was assessed using the Cell Counting Kit-8 (CCK-8) assay. Initially, stock solutions of each pesticide were prepared by dissolving the compound in dimethyl sulfoxide (DMSO) to a final concentration of 500 g/L. For the assay, cells were seeded into 96-well plates at a density of 2 × 10^4 cells per well in 100 µL of medium and incubated for 24 h at 37 °C under a 5% CO2 atmosphere to allow for attachment. Subsequently, the culture medium was replaced with fresh medium containing the pesticides at a series of final concentrations (0, 10, 100, 200, 400, 800, 1000, and 2500 mg/L). Pesticide working concentrations were prepared through serial dilution of the 500 g/L DMSO stock solution, resulting in variable final DMSO concentrations across treatment groups (ranging from 0.002% to 0.5% v/v). A media-only blank (no cells) was included for background absorbance correction, and a solvent control (0.1% DMSO, no pesticide) was used to account for any vehicle effects. All conditions were performed in five replicates. […] At DMSO concentrations ranging from 0.1% to 0.2%, the viability of all four cell lines remained stable above 80%. At a 1% DMSO concentration, the viability of all four cell types was around 50% or higher (Supplementary Figure S5). Following 24 h of exposure, 10 µL of CCK-8 reagent was added to each well. Absorbance Measurement: After an additional 1 h of incubation in the dark, the optical density (OD) at 450 nm was recorded using a microplate reader. Cell viability was calculated by comparing the OD values of treated groups with those of the blank control. Although some test concentrations exceeded the water solubility of the pesticides, the combination of DMSO and serum in the culture medium maintained a uniform exposure system. No precipitation was observed during the experiment, ensuring that the measured effects are attributed to the bioavailable fraction of the compound.

IAR hepatocytes = assay: CCK-8 cytotoxicity assay, IAR; format: cell-based; details: Rattus norvegicus, Hepatocyte; CCK-8, 24 h exposure
Protocol: as §1, §2, §3, §4, §5, §6

293T renal cells [4] = assay: CCK-8 cytotoxicity assay, 293T; format: cell-based, human; details: CCK-8, 24 h exposure; for IC50: Homo sapiens, HEK-293T, 24 h
Protocol: as §1, §2, §3, §4, §5, §6

CCC-HEL-1 hepatocytes [5] = assay: CCK-8 cytotoxicity assay, CCC-HEL-1; format: cell-based; details: Homo sapiens, Hepatocyte; CCK-8, 24 h exposure
Protocol: as §1, §2, §3, §4, §5, §6

Rat = details: cited from earlier work
MRP2 in 293T renal cells = assay: MRP2 immunofluorescence staining, 293T; format: cell-based, human; details: 293T cells, 24 h at IC50, immunofluorescence, vs untreated controls
Protocol: Cells were seeded at a density of 1 × 10^5 cells per well in immunofluorescence-specific glass-bottom dishes and allowed to adhere for 24 h. […] Following treatment, cells were fixed with 4% paraformaldehyde for 15 min at room temperature and permeabilized with 0.1% Triton X-100 for 10 min. Non-specific binding was blocked with 5% bovine serum albumin (BSA) for 1 h at room temperature. Cells were then incubated with primary antibody against MRP2 (1:300 dilution) overnight at 4 °C. After three washes with PBS, cells were treated with secondary antibody (rabbit anti-IgG, 1:600 dilution) for 1 h at room temperature and washed three times with PBS. Anti-MRP2 antibody (Abcam, ab172630) and Alexa Fluor® 488-conjugated anti-rabbit IgG secondary antibody (Cell Signaling Technology, Danvers, MA, USA, 4412) were used for immunofluorescence staining. Nuclei were counterstained with DAPI Staining Solution (C1005, 10 mL) (Beyotime Biotechnology, Shanghai, China). Fluorescent images were captured using a 10× inverted fluorescence microscope. Quantitative analysis of fluorescence intensity was performed using ImageJ software 2.1.0 (National Institutes of Health, Bethesda, MD, USA).

293T renal cells [6] = assay: ELISA of toxicity biomarkers (LDH, KIM-1) in culture supernatant, 293T; format: cell-based, human; details: 293T cells, 24 h exposure at median lethal concentration, vs control
Protocol: The levels of hepatotoxicity biomarkers (ALT, AST, ALP) and nephrotoxicity biomarkers (KIM-1, LDH) in cell culture supernatant were quantified using commercially available ELISA kits (Cloud-Clone Corp., Wuhan, China). 100 μL of the supernatant was added to the pre-coated wells and incubated according to the manufacturer’s protocol (five replicates). After washing, the appropriate detection antibody and substrate were added, and the absorbance was measured at 450 nm using microplate reader. The concentrations of the biomarkers were determined based on standard curves.

Colinus virginianus = details: in vivo; cited from earlier work
[7] = cited from earlier work
[8] = cell lines as stated in the sentence
[9] = Rat, ref PPDB: Pesticide Properties DataBase

| Compound | AST level (CCC-HEL-1 hepatocytes [1]) | ADI - Acceptable Daily Intake ([2]; Rat SF=100) [mg kg⁻¹ bw day⁻¹] | IC50 (NRK renal cells) [µg/mL] | cytotoxicity (in words) [3, 8] | IC50 (IAR hepatocytes) [µg/mL] | IC50 (293T renal cells [4]) [µg/mL] | IC50 (CCC-HEL-1 hepatocytes [5]) [µg/mL] | Mammals - Acute oral LD50 (Rat; [9]) [mg/kg] | LDH level (CCC-HEL-1 hepatocytes [1]) | also measured |
| --- | --- | --- | --- | --- | --- | --- | --- | --- | --- | --- |
| N#Cc1c(Cl)c(Cl)c(Cl)c(C#N)c1Cl [Chlorothalonil, chlorothalonil] | marked suppression | 0.015 | 55.6 | relatively lower cytotoxicity at specific concentrations | 21.3 | 32.5 | 48.1 | > 5000 | – | cytotoxicity (in words) ([3]; cell lines as stated in the sentence, listed as chlorothalonil): strongest cytotoxicity; also recorded: most cytotoxic agent; 293T IC50 (293T renal cells [4]): 32.6 µg/mL |
| CCOP(=S)(OCC)Oc1nc(Cl)c(Cl)cc1Cl [Chlorpyrifos, chlorpyrifos] | marked suppression | 0.001 | 990 | – | 898 | 444 | 633 | 66 | most dramatic LDH elevation | MRP2 protein level (MRP2 in 293T renal cells): most pronounced effect; also recorded: most pronounced downregulation; cytotoxicity (in words) [3]: lowest toxicity; also recorded: minimal direct cytotoxicity; KIM-1 expression (293T renal cells [6]): significantly decreased; also recorded: statistically significant downregulation |
| CC1COC(Cn2cncn2)(c2ccc(Oc3ccc(Cl)cc3)cc2Cl)O1 (stereo not shown) [Difenoconazole, difenoconazole] | increased levels | 0.01 | 498 | strong cytotoxic effects | 132 | 209 | 374 | – | – | ALT level (CCC-HEL-1 hepatocytes [1]): reduced ALT activity; AST level (CCC-HEL-1 hepatocytes [1]; listed as difenoconazole): elevated AST levels; KIM-1 expression (293T renal cells [6]): significantly decreased |
| CCCCC(C#N)(Cn1cncn1)c1ccc(Cl)cc1 (stereo not shown) [Myclobutanil, myclobutanil] | – | 0.025 | 588 | strong cytotoxic effects | 567 | 458 | 455 | – | LDH elevation | Birds - Acute LD50 (Colinus virginianus): 510 mg/kg; MRP2 protein level (MRP2 in 293T renal cells): most pronounced effect; Toxicokinetic Parameter (Concentration), mean ([7]; parent compound, ref [1] (Ding et al. 2023, ref 74)): 38.3 ng/g creatinine; LDH release (293T renal cells [6]): significantly elevated LDH release; Mammals - Acute oral LD50 (Rat; rat, in vivo, po): 1600 mg/kg |
| Cc1cc(C)nc(Nc2ccccc2)n1 [Pyrimethanil, pyrimethanil] | – | 0.17 | 192 | – | 362 | 111 | 505 | 4150 | LDH elevation | ALP level (CCC-HEL-1 hepatocytes [1]): isolated ALP elevation; ALT level (CCC-HEL-1 hepatocytes [1]): normal ALT levels; ALP level (CCC-HEL-1 hepatocytes [1]; listed as pyrimethanil): substantial increases; LDH release (293T renal cells [6]): significantly elevated LDH release; LDH release (293T renal cells [6]; listed as pyrimethanil): significantly increased |
| Oc1nc(Cl)c(Cl)cc1Cl [TCPy, 3,5,6-Trichloro-2-pyridinol] | – | – | – | – | – | – | – | – | – | Toxicokinetic Parameter (Concentration), highest level ([7]; metabolite of chlorpyrifos, ref [3] (Huen et al. 2012, ref 76)): 6.27 ng/mL |
| CC(C)(C)C(O)(CCc1ccc(Cl)cc1)Cn1cncn1 (stereo not shown) [Tebuconazole, tebuconazole] | – | – | 171 | relatively lower cytotoxicity at specific concentrations | 188 | 41.5 | 135 | – | LDH elevation | Birds - Acute LD50 (Colinus virginianus): 1988; ALP level (CCC-HEL-1 hepatocytes [1]): concurrent elevations of both ALT and ALP; ALP level (CCC-HEL-1 hepatocytes [1]; listed as tebuconazole): substantial increases; ADI - Acceptable Daily Intake ([2]; Dog SF=100): 0.03 mg kg⁻¹ bw day⁻¹; Mammals - Acute oral LD50 (Rat; rat, in vivo, po): 1700 |
| CC(C)(C)C(=O)C(Oc1ccc(Cl)cc1)n1cncn1 (stereo not shown) [Triadimefon, triadimefon] | – | – | 977 | strong cytotoxic effects | 878 | 107 | 219 | – | – | ADI - Acceptable Daily Intake ([2]; basis species not given): 0.03 mg kg⁻¹ bw day⁻¹ |
